The source made the active and inactive calls.
Columns and labels:
[1] = target: DNA repair and recombination protein RAD54-like (Homo sapiens, UniProt Q92698); experiment: inhibitors of human RAD54 branch migration, confirmation, biochemical, fluorescence, cherry-picked samples, dose series (AID 651657); assay type: functional
[2] = target: T1, Heat shock factor protein 1 (Mus musculus, UniProt P38532); experiment: HSF1 potentiators in luciferase reporter cells, confirmation, cell-based, NIH3T3, luminescence, dose retest (AID 435004); assay type: functional;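 further: stress induced by proteasome inhibitor MG132 added 30 min after compound; luciferase reporter driven by HSF1 response element in NIH3T3 cells; actives raise luminescence as potentiators of the MG132 stress response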
T1 sequence (P38532 whole entry): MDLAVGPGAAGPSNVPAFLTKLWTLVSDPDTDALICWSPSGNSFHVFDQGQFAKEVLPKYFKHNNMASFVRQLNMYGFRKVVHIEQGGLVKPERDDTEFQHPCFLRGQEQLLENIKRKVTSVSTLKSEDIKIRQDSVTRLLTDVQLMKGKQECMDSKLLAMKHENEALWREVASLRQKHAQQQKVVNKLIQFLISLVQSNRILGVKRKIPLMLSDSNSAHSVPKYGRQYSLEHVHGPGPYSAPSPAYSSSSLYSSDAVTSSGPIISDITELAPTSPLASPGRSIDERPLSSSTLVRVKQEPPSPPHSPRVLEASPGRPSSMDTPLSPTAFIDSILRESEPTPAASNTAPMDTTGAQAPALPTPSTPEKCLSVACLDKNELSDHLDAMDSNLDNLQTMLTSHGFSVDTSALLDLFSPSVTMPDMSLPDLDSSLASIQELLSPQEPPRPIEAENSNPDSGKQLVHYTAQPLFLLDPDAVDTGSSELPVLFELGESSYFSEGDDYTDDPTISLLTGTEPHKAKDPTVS

Hexokinase HKDC1 = target: T2, Hexokinase HKDC1 (Homo sapiens, UniProt Q2TB90); experiment: HKDC1 hexokinase activators, dose response, biochemical, W721R variant (AID 504730); assay type: functional
T2 sequence (Q2TB90 whole entry): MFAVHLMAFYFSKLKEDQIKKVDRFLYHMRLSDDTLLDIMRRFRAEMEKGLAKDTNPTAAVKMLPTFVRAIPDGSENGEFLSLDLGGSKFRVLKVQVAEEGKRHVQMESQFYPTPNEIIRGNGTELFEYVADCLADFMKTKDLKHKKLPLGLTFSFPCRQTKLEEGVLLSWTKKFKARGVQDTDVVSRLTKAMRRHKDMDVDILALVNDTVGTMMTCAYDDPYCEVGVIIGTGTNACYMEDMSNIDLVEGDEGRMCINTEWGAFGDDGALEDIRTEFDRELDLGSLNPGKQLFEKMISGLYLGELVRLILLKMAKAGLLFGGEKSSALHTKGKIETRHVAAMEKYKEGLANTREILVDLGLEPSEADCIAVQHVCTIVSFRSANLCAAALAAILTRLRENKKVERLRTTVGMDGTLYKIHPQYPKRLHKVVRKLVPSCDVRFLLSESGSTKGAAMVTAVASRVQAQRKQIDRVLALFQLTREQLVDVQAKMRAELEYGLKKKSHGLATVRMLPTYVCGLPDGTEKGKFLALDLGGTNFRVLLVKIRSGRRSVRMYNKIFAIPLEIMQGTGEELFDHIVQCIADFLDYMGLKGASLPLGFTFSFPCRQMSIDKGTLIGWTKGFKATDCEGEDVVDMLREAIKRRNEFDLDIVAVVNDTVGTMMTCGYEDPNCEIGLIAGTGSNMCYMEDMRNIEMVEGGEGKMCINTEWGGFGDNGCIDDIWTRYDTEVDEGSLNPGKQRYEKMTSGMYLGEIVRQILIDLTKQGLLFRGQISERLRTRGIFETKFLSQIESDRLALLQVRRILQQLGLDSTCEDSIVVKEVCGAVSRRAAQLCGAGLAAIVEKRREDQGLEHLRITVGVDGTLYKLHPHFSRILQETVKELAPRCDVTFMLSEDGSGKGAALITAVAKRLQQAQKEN

Hexokinase-1 = target: T3, Hexokinase-1 (Homo sapiens, UniProt P19367); experiment: hexokinase 1 activators, dose response, selectivity assay for HKDC1 activator project, biochemical (AID 504762); assay type: functional
T3 sequence (P19367 whole entry): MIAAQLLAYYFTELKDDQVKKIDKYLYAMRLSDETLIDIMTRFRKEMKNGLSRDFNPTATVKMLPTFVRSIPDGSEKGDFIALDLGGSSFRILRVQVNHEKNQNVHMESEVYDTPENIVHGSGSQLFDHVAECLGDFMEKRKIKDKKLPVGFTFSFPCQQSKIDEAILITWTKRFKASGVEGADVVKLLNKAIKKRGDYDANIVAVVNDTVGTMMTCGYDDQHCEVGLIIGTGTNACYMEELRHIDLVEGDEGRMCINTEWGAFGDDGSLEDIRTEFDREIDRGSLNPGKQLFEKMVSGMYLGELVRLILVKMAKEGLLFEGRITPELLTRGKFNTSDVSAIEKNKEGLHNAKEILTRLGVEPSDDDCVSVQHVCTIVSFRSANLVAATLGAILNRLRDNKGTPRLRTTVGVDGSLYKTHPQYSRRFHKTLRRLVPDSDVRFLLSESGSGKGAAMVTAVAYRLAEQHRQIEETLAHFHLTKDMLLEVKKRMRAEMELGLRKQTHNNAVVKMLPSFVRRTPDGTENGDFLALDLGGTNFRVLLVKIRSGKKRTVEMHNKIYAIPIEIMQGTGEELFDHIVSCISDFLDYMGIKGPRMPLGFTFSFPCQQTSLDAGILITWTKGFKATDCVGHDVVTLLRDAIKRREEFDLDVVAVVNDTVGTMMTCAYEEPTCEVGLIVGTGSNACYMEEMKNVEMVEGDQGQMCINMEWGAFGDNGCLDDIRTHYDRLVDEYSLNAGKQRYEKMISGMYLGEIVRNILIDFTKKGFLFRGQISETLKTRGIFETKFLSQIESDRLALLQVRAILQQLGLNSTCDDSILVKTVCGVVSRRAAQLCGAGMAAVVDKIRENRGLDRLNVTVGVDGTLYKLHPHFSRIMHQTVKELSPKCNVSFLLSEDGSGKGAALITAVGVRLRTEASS

[3] = target: Tyrosine-protein phosphatase non-receptor type 11 (Homo sapiens, UniProt Q06124); experiment: SHP2 phosphatase inhibition, dose response, selectivity assay for STEP inhibitor project, biochemical (AID 602367); assay type: functional; details: read-out: IC50_Mean
Chain of Tyrosine-protein phosphatase non-receptor type 11 (Q06124 whole entry): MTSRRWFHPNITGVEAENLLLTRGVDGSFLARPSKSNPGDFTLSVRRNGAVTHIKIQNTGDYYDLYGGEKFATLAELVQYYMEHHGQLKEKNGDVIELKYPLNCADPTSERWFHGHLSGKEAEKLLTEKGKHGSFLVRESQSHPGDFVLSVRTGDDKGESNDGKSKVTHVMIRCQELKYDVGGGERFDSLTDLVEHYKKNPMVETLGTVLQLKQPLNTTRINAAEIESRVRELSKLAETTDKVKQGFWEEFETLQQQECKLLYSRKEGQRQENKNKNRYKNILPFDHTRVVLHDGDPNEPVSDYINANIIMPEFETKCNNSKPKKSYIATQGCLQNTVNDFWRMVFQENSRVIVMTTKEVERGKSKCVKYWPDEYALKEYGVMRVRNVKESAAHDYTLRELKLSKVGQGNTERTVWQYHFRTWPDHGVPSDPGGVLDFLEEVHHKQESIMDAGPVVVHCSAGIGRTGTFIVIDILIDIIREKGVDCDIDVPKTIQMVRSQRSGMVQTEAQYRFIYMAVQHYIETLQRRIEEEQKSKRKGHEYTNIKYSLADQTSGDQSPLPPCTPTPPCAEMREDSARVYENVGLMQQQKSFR

[4] = target: Dual specificity protein phosphatase 3 (Homo sapiens, UniProt P51452); experiment: VHR phosphatase inhibition, dose response, selectivity assay for STEP inhibitor project, biochemical (AID 602374); assay type: functional; details: read-out: IC50_Mean
Chain of Dual specificity protein phosphatase 3 (P51452 whole entry): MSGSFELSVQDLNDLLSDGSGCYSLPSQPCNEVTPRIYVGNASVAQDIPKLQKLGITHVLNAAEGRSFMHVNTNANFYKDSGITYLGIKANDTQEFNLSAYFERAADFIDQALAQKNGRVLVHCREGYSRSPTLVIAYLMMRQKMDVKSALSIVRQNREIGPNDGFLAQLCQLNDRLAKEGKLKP

[5] = target: Tyrosine-protein phosphatase non-receptor type 5 (Homo sapiens, UniProt P54829); experiment: STEP phosphatase inhibitors, confirmation, biochemical, fluorescence intensity, uHTS hits (AID 602372); assay type: functional; details: read-out: IC50_Mean
Chain of Tyrosine-protein phosphatase non-receptor type 5 (P54829 whole entry): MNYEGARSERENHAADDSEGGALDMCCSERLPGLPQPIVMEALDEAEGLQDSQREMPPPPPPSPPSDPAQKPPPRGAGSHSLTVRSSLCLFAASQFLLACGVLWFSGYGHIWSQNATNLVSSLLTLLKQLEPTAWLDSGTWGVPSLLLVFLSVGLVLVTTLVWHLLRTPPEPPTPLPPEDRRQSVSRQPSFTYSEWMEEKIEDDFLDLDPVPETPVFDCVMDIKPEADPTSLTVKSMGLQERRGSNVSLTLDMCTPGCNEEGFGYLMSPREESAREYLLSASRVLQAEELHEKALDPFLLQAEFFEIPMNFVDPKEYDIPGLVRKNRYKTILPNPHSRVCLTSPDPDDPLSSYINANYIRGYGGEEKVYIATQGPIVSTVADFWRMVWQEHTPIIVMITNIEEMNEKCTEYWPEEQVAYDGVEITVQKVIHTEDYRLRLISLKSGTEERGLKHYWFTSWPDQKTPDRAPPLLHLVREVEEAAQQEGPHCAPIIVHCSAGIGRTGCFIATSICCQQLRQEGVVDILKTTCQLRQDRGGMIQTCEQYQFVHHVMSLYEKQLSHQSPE

[6] = target: Nuclear receptor subfamily 5 group A member 2 (Homo sapiens, UniProt O00482); assay type: functional, cell-based;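 further: HEK293T cells transfected with LRH-1 and a StAR promoter luciferase reporter; potency for inhibitors that lower LRH-1 driven reporter light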
Chain of Nuclear receptor subfamily 5 group A member 2 (O00482 whole entry): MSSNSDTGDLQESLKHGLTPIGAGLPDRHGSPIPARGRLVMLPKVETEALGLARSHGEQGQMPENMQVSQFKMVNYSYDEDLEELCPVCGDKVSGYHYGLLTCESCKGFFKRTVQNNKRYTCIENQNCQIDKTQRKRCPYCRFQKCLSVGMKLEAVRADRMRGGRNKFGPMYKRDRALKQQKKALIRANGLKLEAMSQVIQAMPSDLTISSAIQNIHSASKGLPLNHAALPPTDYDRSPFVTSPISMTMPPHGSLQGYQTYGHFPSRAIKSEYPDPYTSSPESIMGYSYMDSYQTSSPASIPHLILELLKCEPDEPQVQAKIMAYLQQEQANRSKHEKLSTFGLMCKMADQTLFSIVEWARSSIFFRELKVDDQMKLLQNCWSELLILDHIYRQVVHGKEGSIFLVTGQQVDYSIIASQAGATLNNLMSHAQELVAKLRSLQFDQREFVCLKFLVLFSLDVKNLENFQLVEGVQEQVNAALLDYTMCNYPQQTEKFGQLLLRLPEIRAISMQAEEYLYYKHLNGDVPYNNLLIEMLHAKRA

Steroidogenic factor 1 = Steroidogenic factor 1 (Homo sapiens, UniProt Q13285); experiment: Counterscreen for inverse agonists of the liver receptor homolog-1 (LRH-1; NR5A2): Luminescence-based cell-based high throughput dose response assay to identify inverse agonists of the Steroidogenic Factor 1 Nuclear Receptor (SF1; NR5A1).; assay type: functional
Chain of Steroidogenic factor 1 (Q13285 whole entry): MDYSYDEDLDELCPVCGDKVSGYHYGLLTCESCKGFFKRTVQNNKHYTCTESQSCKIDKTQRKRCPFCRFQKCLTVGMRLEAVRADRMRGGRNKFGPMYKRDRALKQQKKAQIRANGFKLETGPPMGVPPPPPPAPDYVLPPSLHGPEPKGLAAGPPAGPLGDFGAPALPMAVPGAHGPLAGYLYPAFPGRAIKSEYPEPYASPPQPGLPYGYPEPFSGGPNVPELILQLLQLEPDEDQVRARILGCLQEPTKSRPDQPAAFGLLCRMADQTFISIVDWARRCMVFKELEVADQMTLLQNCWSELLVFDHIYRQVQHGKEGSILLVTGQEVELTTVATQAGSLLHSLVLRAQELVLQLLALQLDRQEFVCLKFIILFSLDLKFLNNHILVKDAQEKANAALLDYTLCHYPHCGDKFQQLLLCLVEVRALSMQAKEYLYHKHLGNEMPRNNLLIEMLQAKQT

[7] = StAR promoter reporter inhibition counter-screen, dose response, counter-screen for LRH-1 inverse agonist project, cell-based, luminescence, luciferase reporter (AID 651969); assay type: functional
[8] = miR-122 activators in hepatoma reporter cells, dose response, cell-based, Huh7 psiCHECK-miR122, Renilla luciferase, cherry-picked (AID 651956); assay type: functional;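 further: huh7 hepatoma cells stably carrying a psiCHECK-2 miR-122 sensor plasmid; renilla luciferase signal reporting endogenous miR-122 activity after 48 h compound exposure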
[9] = HEK293T cell cytotoxicity, dose response, cytotoxicity control for HIV Vif inhibitor project, cherry-picks (AID 652208); assay type: functional, cell-based
[10] = LMP1-driven NF-kB reporter inhibition, dose response, cell-based, luciferase reporter, luminescence, dry powder, set 2 (AID 624376); assay type: functional
[11] = non-specific cell cytotoxicity, dose response, cytotoxicity control for PAX8 inhibitor project, plate reader, dry powder samples (AID 743021); assay type: functional, cell-based
[12] = NIH:OVCAR-3 ovarian cancer cell cytotoxicity, dose response, PAX8 inhibitor project, plate reader, dry powder samples (AID 743044); assay type: functional, cell-based
Paired box protein Pax-8 = Paired box protein Pax-8 (Homo sapiens, UniProt Q06710); experiment: inhibitors of PAX8-driven TPO luciferase reporter, dose response, RMG-I cells, cherry-pick (AID 687027); assay type: functional, cell-based;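 further: luciferase reporter driven by Pax8 target thyroperoxidase promoter measured by SteadyGlo luminescence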
Chain of Paired box protein Pax-8 (Q06710 whole entry): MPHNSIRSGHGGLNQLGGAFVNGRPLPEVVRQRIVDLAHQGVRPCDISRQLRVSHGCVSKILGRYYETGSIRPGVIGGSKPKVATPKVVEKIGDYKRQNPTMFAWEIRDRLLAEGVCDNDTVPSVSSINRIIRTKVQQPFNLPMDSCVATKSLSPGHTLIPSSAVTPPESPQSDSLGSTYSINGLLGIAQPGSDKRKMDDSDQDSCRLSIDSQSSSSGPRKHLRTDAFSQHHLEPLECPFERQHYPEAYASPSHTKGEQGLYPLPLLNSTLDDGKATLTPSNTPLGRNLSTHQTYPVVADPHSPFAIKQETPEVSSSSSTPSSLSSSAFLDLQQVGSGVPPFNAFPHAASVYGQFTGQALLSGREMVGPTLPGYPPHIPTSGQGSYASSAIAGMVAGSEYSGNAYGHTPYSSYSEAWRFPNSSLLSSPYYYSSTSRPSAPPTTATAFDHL

[13] = A2780 ovarian cancer cell cytotoxicity, dose response, cytotoxicity control, plate reader, dry powder samples (AID 743046); assay type: functional, cell-based
Albumin = Albumin (Bos taurus, UniProt P02769); experiment: Counterscreen for inhibitors of T-cell receptor (TCR)-CD3 interaction: Fluorescence-based biochemical high throughput dose response assay to identify inhibitors of T-cell receptor (TCR)-CD3 interaction using a TAMRA-labeled BSA probe.; assay type: functional
Chain of Albumin (P02769 whole entry): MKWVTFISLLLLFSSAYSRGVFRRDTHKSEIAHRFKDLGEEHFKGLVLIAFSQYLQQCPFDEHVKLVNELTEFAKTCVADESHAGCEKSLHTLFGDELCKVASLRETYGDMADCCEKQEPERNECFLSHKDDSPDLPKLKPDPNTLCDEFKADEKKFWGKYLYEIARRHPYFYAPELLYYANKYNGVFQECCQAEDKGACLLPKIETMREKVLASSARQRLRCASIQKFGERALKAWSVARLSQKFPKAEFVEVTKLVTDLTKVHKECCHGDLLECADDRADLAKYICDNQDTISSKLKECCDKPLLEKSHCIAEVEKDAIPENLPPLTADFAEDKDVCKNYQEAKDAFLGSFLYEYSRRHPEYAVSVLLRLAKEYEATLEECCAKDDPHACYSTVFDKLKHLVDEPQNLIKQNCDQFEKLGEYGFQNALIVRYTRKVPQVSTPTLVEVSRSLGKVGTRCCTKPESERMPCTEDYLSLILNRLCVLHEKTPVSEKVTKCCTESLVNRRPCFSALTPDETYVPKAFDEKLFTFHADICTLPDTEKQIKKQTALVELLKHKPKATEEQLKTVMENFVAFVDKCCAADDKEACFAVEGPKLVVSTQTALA

[14] = target: T4, DNA repair protein RAD52 homolog (Homo sapiens, UniProt P43351); assay type: functional, biochemical
T4 sequence (P43351 whole entry): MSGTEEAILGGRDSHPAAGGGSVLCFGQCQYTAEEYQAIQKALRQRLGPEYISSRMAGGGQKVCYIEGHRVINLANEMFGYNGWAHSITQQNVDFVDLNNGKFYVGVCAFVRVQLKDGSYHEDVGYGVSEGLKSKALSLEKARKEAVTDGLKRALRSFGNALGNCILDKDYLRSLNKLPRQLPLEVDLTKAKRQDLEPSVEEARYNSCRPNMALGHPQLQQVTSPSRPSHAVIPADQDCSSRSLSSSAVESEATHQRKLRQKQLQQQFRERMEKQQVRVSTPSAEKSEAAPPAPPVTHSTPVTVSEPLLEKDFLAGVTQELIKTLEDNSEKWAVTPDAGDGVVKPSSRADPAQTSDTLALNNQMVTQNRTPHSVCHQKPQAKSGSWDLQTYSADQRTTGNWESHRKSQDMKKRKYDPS

Chain of DNA repair and recombination protein RAD54-like (Q92698 whole entry): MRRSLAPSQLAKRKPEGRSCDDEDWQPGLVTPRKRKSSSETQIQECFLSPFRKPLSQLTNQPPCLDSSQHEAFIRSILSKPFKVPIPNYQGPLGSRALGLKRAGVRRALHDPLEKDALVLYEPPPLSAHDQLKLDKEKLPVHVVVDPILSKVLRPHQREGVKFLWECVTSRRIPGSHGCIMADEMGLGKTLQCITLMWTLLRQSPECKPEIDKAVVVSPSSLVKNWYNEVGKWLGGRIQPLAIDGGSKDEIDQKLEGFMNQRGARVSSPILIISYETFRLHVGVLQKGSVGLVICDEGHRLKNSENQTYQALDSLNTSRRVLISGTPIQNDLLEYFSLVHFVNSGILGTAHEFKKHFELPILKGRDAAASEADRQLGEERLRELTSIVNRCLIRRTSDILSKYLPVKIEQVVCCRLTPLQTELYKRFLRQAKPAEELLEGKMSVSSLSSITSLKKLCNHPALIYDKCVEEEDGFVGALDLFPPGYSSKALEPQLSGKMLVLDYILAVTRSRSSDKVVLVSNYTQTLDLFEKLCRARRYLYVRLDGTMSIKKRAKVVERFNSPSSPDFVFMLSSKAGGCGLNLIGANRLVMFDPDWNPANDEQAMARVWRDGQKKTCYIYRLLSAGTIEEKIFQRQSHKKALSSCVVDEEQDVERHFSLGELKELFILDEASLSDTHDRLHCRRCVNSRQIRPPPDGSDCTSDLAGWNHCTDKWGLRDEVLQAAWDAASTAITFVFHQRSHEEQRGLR

CCOC(=O)c1c(NC(C)=O)sc2c(O)c(CN3CCN(CC)CC3)ccc12
AC50 [1]: 32.1 µM (active) | EC50 [2]: 55.8 µM (active)

CC(=NNC(=S)N1CC2CCC(CC2)C1)c1cccc(C)n1
EC50 (Hexokinase HKDC1): > 80 µM (inactive) | EC50 (Hexokinase-1): > 80 µM (inactive) | IC50 [3]: 6.06 µM (active) | IC50 [4]: 7.77 µM (active) | IC50 [5]: > 80 µM (inactive)

COc1ccc(Nc2nc(NCCN3CCOCC3)nc(Nc3ccc(OC)cc3)n2)cc1
IC50 [6]: 5.3 µM (active) | IC50 (Steroidogenic factor 1): 4.32 µM (active) | IC50 [7]: 12 µM (inactive)

C[C@@H]1CN([C@@H](C)CO)S(=O)(=O)c2ccc(-c3ccccc3)cc2O[C@@H]1CN(C)C(=O)c1ccc2c(c1)OCO2
AC50 [8]: 16.3 µM (active)

COc1ccc(-c2coc3c(C(=O)Nc4cccc(C(C)=O)c4)cccc23)c(C)c1
AC50 [9]: > 52 µM (inactive)

COc1cccc(S(=O)(=O)N(C)C[C@H]2Oc3cc(C4=CCCCC4)ccc3S(=O)(=O)N([C@@H](C)CO)C[C@@H]2C)c1
AbsAC35 [10]: 64.1 µM

C[C@H](CO)N1C[C@H](C)[C@H](CN(C)C(=O)[C@H](Cc2ccccc2)N(C)C)OCc2ccccc2-c2c(n(C)c3ccccc23)C1=O
AC50 [11]: 36.2 µM (active) | AC50 [12]: 45.4 µM (active) | AC50 (Paired box protein Pax-8): 16.4 µM (active) | AC50 [13]: 12.6 µM (active)

CNC(=S)N/N=C/c1cc(Br)cc(Br)c1O
IC50 (Albumin): > 94.1 µM (inactive)

CCOC(=O)c1cnc2ccc(OCC)cc2c1NCCCN1CCOCC1
AC50 [1]: 11.7 µM (active) | AC50 [14]: 11.2 µM (active)

— ChEMBL document CHEMBL1201862, “PubChem BioAssay data set” (2004)
